In patent publication US6936719B2, “Biaryl compounds as serine protease inhibitors” (BioCryst Pharmaceuticals, Inc., priority 2001, dated 2005):

Tests used:
Type in all cases: biochemical
TF/FVIIa = TF/FVIIa (Homo sapiens, UniProt P08709); assay: In vitro amidolytic assay for inhibition of TF/FVIIa (Spectrozyme-FVIIa, pNA absorbance at OD405)
Procedure: In Vitro Assay for Inhibition of TF/FVIIa
To assess the inhibition of the test compounds against the target enzyme, TF/FVIIa, an amidolytic assay based upon the absorbance of p-Nitroanalide (pNA) at OD405 was utilized. The IC50 of the test compounds was determined by using KC4A data reduction software (Bio-Tek Instruments) to interpolate percent inhibition from observed Vmax values.
TF/FVIIa assay reactions were performed in a 200 μL mixture containing 4 nM FVIIa, 10 nM lipidated tissue factor, in an assay buffer containing 100 mM Tris, pH 7.2, 150 mM NaCl, 5 mM calcium chloride, 0.1% bovine serum albumin (BSA), and 10% dimethyl sulfoxide (DMSO). TF and FVIIa were allowed to equilibrate at room temperature for 15 minutes. Test compounds dissolved in DMSO were incubated at varied concentrations with TF/FVIIa for 10 minutes, followed by addition of 500 µM substrate Spectrozyme-FVIIa. Reactions were incubated for 5 minutes at room temperature prior to measuring the change in OD405 run for 10 minutes at 21 second intervals with a Powerwave x (Bio-Tek Instruments) microplate reader.

human thrombin = human thrombin (Homo sapiens, UniProt P00734); assay: In vitro colorimetric assay for human thrombin (Nα-Benzoyl-Phe-Val-Arg-p-Nitroanilide, OD405)
Procedure: In Vitro Assay for Human Thrombin
This colorimetric assay was used to assess the ability of the test compounds to inhibit the human thrombin enzyme. IC50 of the test compounds was determined by using KC4A data reduction software (Bio-Tek Instruments) to interpolate percent inhibition from observed Vmax values.
Thrombin assay reactions were performed in a 200 μL mixture containing human thrombin at (1 U/mL) in an assay buffer containing 100 mM HEPES, 10 mM calcium chloride, and 10% DMSO, pH 7.5. Test compounds dissolved in DMSO were added to thrombin enzyme reactions at varied concentrations, followed by the addition of substrate Nα-Benzoyl-Phe-Val-Arg-p-Nitroanilide at a final concentration of 1 mM. Reactions were incubated for 5 minutes at room temperature prior to measuring the change in OD405 nm for 10 minutes at 21 second intervals with a Powerwave x (Bio-Tek Instruments) microplate reader.

human pancreatic trypsin = assay: In vitro enzymatic assay for human trypsin (L-BAPNA, OD405)
Procedure: In Vitro Assay for Human Trypsin
This enzymatic assay was employed to evaluate the ability of the test compounds to inhibit human pancreatic trypsin. IC50 of the test compounds was determined by using KC4A data reduction software (Bio-Tek Instruments) to interpolate percent inhibition from observed Vmax values.
Trypsin assay reactions were performed in a 200 μL mixture containing human pancreatic trypsin at 1 μg/mL in an assay buffer containing 200 mM triethanolamine (TEA), 10 mM calcium chloride, 10% DMSO, pH 7.8. Test compounds dissolved in DMSO were added to trypsin enzyme reactions at varied concentrations, followed by the addition of substrate Nα-Benzoyl-L-Arginine p-Nitroanilide (L-BAPNA) at a final concentration of (0.25 mg/mL). Reactions were incubated for 5 minutes at room temperature prior to measuring the change in OD405 nm for 10 minutes at 21 second intervals with a Powerwave x (Bio-Tek Instruments) microplate reader.

TF/FVIIa, sequence (P08709 213-466 limits assumed): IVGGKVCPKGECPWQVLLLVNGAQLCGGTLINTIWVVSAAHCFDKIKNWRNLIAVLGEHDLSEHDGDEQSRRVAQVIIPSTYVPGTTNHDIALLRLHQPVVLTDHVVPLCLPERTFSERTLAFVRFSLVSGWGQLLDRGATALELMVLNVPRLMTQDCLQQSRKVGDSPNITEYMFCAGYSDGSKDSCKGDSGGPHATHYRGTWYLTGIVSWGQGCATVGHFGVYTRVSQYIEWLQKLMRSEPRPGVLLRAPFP
TF/FVIIa, sequence (P08709 61-212 limits assumed): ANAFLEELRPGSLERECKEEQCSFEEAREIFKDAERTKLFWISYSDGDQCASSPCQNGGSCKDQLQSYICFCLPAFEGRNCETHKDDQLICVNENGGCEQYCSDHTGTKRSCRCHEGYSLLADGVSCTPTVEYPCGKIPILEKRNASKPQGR
TF/FVIIa, sequence (P13726 33-295 partner): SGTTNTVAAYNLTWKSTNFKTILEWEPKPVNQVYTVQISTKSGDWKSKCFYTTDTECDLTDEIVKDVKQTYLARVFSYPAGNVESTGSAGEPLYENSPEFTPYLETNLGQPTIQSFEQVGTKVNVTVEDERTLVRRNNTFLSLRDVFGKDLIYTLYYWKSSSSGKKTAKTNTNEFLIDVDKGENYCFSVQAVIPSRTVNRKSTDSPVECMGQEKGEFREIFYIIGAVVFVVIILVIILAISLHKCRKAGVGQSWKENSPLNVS

Row | SMILES | IC50 (TF/FVIIa) [µM] | IC50 (human thrombin) [µM] | IC50 (human pancreatic trypsin) [µM]
1 | CC(C)CNC(=O)c1ccc(-c2ccc(-c3ccncc3)cc2C(=O)Nc2ccc(C(=N)N)cc2)c(C(=O)O)c1 | > 0.1 | > 1 | > 1
2 | CC(C)CNC(=O)c1ccc(-c2ccc(-c3ccc(CO)s3)cc2C(=O)Nc2ccc(C(=N)N)cc2)c(C(=O)O)c1 | > 0.1 | > 1 | > 1
3 | CC(C)CNC(=O)c1ccc(-c2ccc(-c3nccs3)cc2C(=O)Nc2ccc(C(=N)N)cc2)c(C(=O)O)c1 | > 0.1 | > 1 | > 1
4 | CC(C)CNC(=O)c1ccc(-c2ccc(C#CC(C)(C)O)cc2C(=O)Nc2ccc(C(=N)N)cc2)c(C(=O)O)c1 | > 0.1 |  | 
5 | CC(C)CNC(=O)c1ccc(-c2cc(Oc3ccccc3)ccc2C(=O)Nc2ccc(C(=N)N)cc2)c(C(=O)O)c1 | > 1 |  | 
6 | CC(C)CNC(=O)c1ccc(-c2cc(-c3cccs3)ccc2C(=O)Nc2ccc(C(=N)N)cc2)c(C(=O)O)c1 | > 0.1 |  | 
7 | C#CCNC(=O)c1ccc(-c2ccc(-c3ccco3)cc2C(=O)Nc2ccc(C(=N)N)cc2)c(C(=O)O)c1 | < 0.1 | > 1 | 0.1 to 1
8 | C=Cc1ccc(-c2ccc(C(=O)NC(CCC)CCC)cc2C(=O)O)c(C(=O)Nc2ccc(C(=N)N)cc2)c1 | < 0.1 | > 1 | 0.1 to 1
9 | N=C(N)c1ccc(NC(=O)c2cc(-c3ccco3)ccc2-c2ccc(C(=O)NCCCCCC(=O)O)cc2C(=O)O)cc1 | < 0.1 | > 1 | 0.1 to 1
10 | C=Cc1ccc(-c2ccc(C(=O)NCC(C)C)cc2C(=O)O)c(C(=O)Nc2ccc(C(=N)N)cc2)c1 | < 0.1 | > 1 | 0.1 to 1
